# Assays:
# [1] = Non-sink dissolution of melt extruded formulations in simulated gastric fluid; format: physicochemical
# Method: (§1) Solid dispersion formulations of Compound A in Eudragit® E PO (Formulation 2) and Kollidon® VA 64 (Formulation 3) were examined for dissolution behavior under non-sink conditions to assess oral bioavailability enhancement. Studies were conducted in three different media preparations, including: simulated gastric fluid, fed state simulated intestinal fluid and fasted state simulated intestinal fluid, which are presented in Table 2, Table 3 and Table 4 and FIG. 1, FIG. 2 and FIG. 3.
# [2] = In vitro dissolution test in NaTC/POPC in PBS (pH 6.5); format: physicochemical; conditions: theoretical Cmax 200 μg/mL
# Method: (§2) Samples were weighed, dissolved in the buffer system, centrifuged, and the supernatant analyzed by HPLC at 10, 20, 40, and 90 minutes.
# (§3) Tables 7a and 7b and FIG. 6 compares in vitro dissolution performance of Compound A:CAP SDD with that of crystalline of Compound A, HPMCAS-MG, and HPMCAS-HG.
# [3] = Non-sink dissolution of melt extruded compositions in simulated fasted state intestinal fluid; format: physicochemical
# Method: as §1
# [4] = In vitro dissolution of HPMCAS dispersions (Table 7b, simulated gastric fluid); format: physicochemical; conditions: dose 200 μg/mL, initial ninety minutes
# Method: as §2, §3
# [5] = In vivo systemic exposure in male beagle dogs, oral dosing; conditions: dog; for AUC(0-t): read-out: AUC0-24 hr
# Method: In vivo testing was performed in male dogs to compare the systemic exposure of the 25% Compound A:CAP SDD (n=2) to that of the crystalline Compound A (n=2).
# [6] = Non-sink dissolution of melt extruded compositions in simulated fed state intestinal fluid; format: physicochemical
# Method: as §1
# [7] = system: subjects with pre-diabetes; experiment: Phase 1c study C, pharmacodynamics (MMTT/OGTT glucose excursion, fasting glucose); format: in vivo, human
# Description: (§4) This is a single center, phase 1, double-blind, placebo-controlled, multiple ascending dose study of Compound A given orally as a reformulated tablet (spray dried dispersion, or SDD) to otherwise healthy subjects with “pre-diabetes” (impaired fasting glucose, impaired glucose tolerance, or HbA1C≧5.8), or diet-controlled type 2 diabetes mellitus. The study was designed to evaluate the safety, tolerability, pharmacokinetics (PK), and proof-of-concept pharmacodynamics of Compound A. Each dosing cohort consisted of a screening period to assess eligibility, a dosing and observational period, and a follow-up period.
# On Day −2, following a 10 hour overnight fast, up to 15 eligible subjects underwent a baseline MMTT administered between 9:30 and 10:15 am, for the assessment of glucose and insulin response and of total GLP-1 and glucagon. On Day −1, following a 10 hour overnight fast, up to 15 eligible subjects also underwent a baseline OGTT (75 g) administered at the identical time of day as the MMTT, for assessment of the same markers. […] Compound A was measured pre-dose (t −30 and 0 min) on Day 1 and at 20 and 40 minutes, and 1, 2, 3, 4, 6, 8, 12, and 24 hours post-dose. Compound A was measured at identical timepoints associated with the Day 4 dose, but included additional measurements at 48 and 72 hours post-dose (Day 7). […]
# [8] = Phase 1 multiple ascending dose study, pharmacokinetics; format: in vivo; conditions: human, blood, po, repeat (5) daily doses, mean (±SD); for AUC(0-t): read-out: AUC0-24 h
# Description: as §4
# The screening visit was used to assess preliminary eligibility in potential subjects who provided informed consent. Final eligibility for study enrollment was determined after check-in to the clinic on Day −3, before randomization and dosing (on Day 1). Eleven eligible subjects who successfully completed screening were enrolled into the lowest dose cohort that was yet to be filled, and randomly assigned in a double-blind fashion to receive Compound A (n=8) or matched placebo (n=3). Up to 4 additional subjects were admitted to the clinic and available as back-ups in the event that 1 of the original 11 subjects was not dosed for any reason.
# Each of these study cohorts was enrolled and completed independently, and in sequential fashion. After completion of the inpatient observational period at Day 8, blinded clinical safety and laboratory parameters (including PK) were assessed in a teleconference between the Principal Investigator, or Sub-Investigator, and the Metabolex Medical Monitor, after which subject dosing assignments could have been unblinded, if necessary, for determination of dose-limiting toxicities (DLTs). If two dose-limiting toxicities (DLTs) occurred within the same treatment cohort in subjects receiving active drug, no further dose escalation would have been allowed, and the maximum tolerated dose (MTD) would have been defined by the dose in the previous cohort. Additionally, dosing may have been halted at the discretion of the sponsor depending on observed Compound A concentrations and PK parameters from the preceding cohort in context of the safety and pharmacodynamic profile of the preceding cohorts.
# On Day −2, following a 10 hour overnight fast, up to 15 eligible subjects underwent a baseline MMTT administered between 9:30 and 10:15 am, for the assessment of glucose and insulin response and of total GLP-1 and glucagon. On Day −1, following a 10 hour overnight fast, up to 15 eligible subjects also underwent a baseline OGTT (75 g) administered at the identical time of day as the MMTT, for assessment of the same markers. After the baseline OGTT assessments, 11 subjects were enrolled and randomized into the current dosing cohort. Up to 4 additional subjects remained overnight to be available as back-ups in the event that 1 of the original 11 subjects was, for any reason, not dosed. If more than 11 eligible subjects meet the cohort requirements, the excess subjects may have been included in the next cohort check-in, if within the 35 day screening window and they continued to meet eligibility. On Days 1 through 5, following a 10 hour overnight fast, subjects received daily doses of Compound A or placebo exactly 2 hours earlier than the start of the baseline MMTT, under fasted conditions. The inpatient period in clinic began on Day −2 and concluded on Day 8, following the final inpatient study procedure. The following assessments were made in temporal relationship to the administration of the study drug, administered at Day 1, Time 0, unless otherwise stated: • Pharmacokinetic Blood and Urine Sampling: • Subjects randomized to Compound A or placebo underwent single dose (Day 1) and repeat dose (Day 4) PK. Compound A was measured pre-dose (t −30 and 0 min) on Day 1 and at 20 and 40 minutes, and 1, 2, 3, 4, 6, 8, 12, and 24 hours post-dose. […]
# [9] = SDD tablet 25 mg orally once daily
# [10] = SDD tablet 100 mg orally once daily
# [11] = SDD tablets 300 mg orally once daily
# [12] = SDD tablets 600 mg orally once daily
compound,measurement,setting,value
"CCc1cnc(N2CCC(c3nc(COc4ccc(-n5cnnn5)cc4)cs3)CC2)nc1 [Compound A Crystalline, 5-ethyl-2-{4-[4-(4-tetrazol-1-yl-phenoxymethyl)-thiazol-2-yl]-piperidin-1-yl}-pyrimidine]",AUC0-2 hr,[1],0.321 mg·h/mL
same,AUC0-4 hr,[1],0.727 mg·h/mL
same,AUC0-24 hr,[1],4.494 mg·h/mL
same,Cmax,[1],0.247 mg/mL
same,Tmax,[1],2 h
same,AUC0-90,"[2]; NaTC/POPC in PBS pH 6.5, through 90 minutes",950 µg·min/mL
same,Cmax (μg/mL Compound A),"[2]; NaTC/POPC in PBS pH 6.5, up to 90 min",12 µg/mL
same,AUC0-2 hr,[3],51.205 µg·h/mL
same,AUC0-4 hr,[3],103.281 µg·h/mL
same,AUC0-24 hr,[3],434.380 µg·h/mL
same,Cmax,[3],29.891 µg/mL
same,Tmax,[3],30 min
same,AUC90,[4],1000 µg·min/mL
same,Cmax90,[4],8 µg/mL
same,Cmax,[5]; 10 mg/kg orally,560 ng/mL
same,AUC(0-t),[5]; 10 mg/kg orally,3900 ng·h/mL
same,Cmax,[5]; 200 mg/kg orally,2000 ng/mL
same,AUC(0-t),[5]; 200 mg/kg orally,17000 ng·h/mL
same,AUC0-2 hr,[6],100.045 µg·h/mL
same,AUC0-4 hr,[6],211.597 µg·h/mL
same,AUC0-24 hr,[6],1148.003 µg·h/mL
same,Cmax,[6],60.182 µg/mL
same,Tmax,[6],2 h
"CCc1cnc(N2CCC(c3nc(COc4ccc(-n5cnnn5)cc4)cs3)CC2)nc1 [Compound A, 5-ethyl-2-{4-[4-(4-tetrazol-1-yl-phenoxymethyl)-thiazol-2-yl]-piperidin-1-yl}-pyrimidine]",fasting plasma glucose (FPG) and glucose excursion following MMTT and OGTT,[7]; studies conducted to date,consistently lowered
same,"reduction in glucose, net of placebo","[7]; subsets of subjects with the greatest degree of glucose intolerance at baseline, pooled, any dose, Phase 1c (study C)",up to 77%
same,AUC(0-inf),[8]; [9],6500 ng·h/mL
same,Tmax,[8]; [9],5.4 h
same,half-life,[8]; [9],840 min
same,AUC(0-t),[8]; [9],4150 ng·h/mL
same,Cmax,"[8]; SDD tablet 25 mg orally once daily, subjects with pre-diabetes",346 ng/mL
same,AUC(0-inf),[8]; [10],24600 ng·h/mL
same,Cmax,[8]; [10],1150 ng/mL
same,Tmax,[8]; [10],2.8 h
same,half-life,[8]; [10],1100 min
same,AUC(0-t),[8]; [10],13300 ng·h/mL
same,AUC(0-inf),[8]; [11],45000 ng·h/mL
same,Cmax,[8]; [11],2330 ng/mL
same,Tmax,[8]; [11],2.2 h
same,half-life,[8]; [11],918 min
same,AUC(0-t),[8]; [11],30000 ng·h/mL
same,Cmax,[8]; [12],3560 ng/mL
same,Tmax,[8]; [12],3.3 h
same,AUC(0-t),[8]; [12],57900 ng·h/mL

# Source: patent US9241924B2, “Compositions of 5-ethyl-2-{4-[4-(4-tetrazol-1-yl-phenoxymethyl)-thiazol-2-yl]-piperidin-1-yl}-pyrimidine” (CYMABAY THERAPEUTICS, INC., priority 2010, dated 2016)
